According to patent US7384927B2, “Alkylated porphyrins as pesticides acting both in the presence and absence of light” (priority 2003, dated 2008):

Assays:
Assay type in all cases: in vivo
Ceratitis capitata flies [1] = experiment: Photoinsecticidal action: fly survival after bait and visible light irradiation (artificial lamp); details: survival 10 h after irradiation
In short: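 Medflies (1 week old, 50 per cage) starved 36 h, then fed 10% sucrose/1% autolysed yeast bait with or without porphyrin. Irradiated 1 h with filtered halogen lamp (360–850 nm) at 1220 μE s^−1m^−2; survival scored 10 h after irradiation, controls given porphyrin-free bait.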

[2] = tested on: Stomoxis calcitrans flies; experiment: Insecticidal action in the dark: fly survival after porphyrin bait; details: fed 24 h, survival 12 h after change to porphyrin-free bait
Experimental: (§1) These flies were then used in the various experimental sessions. […] The number of survivors was evaluated 12 h after switching from administration of a porphyrin-containing bait to a porphyrin-free bait. In none of the experiments was mortality or any apparent toxic effect observed in control flies (flies not fed with porphyrin, see survival at 0 μM porphyrin concentration).

Bactrocera oleae flies = experiment: as above; details: fed 24 h, survival 12 h after change to porphyrin-free bait
Experimental: as §1

[3] = tested on: Bactrocera oleae (olive fly); experiment: Uptake of alkylated porphyrins by flies fed porphyrin-containing bait; details: B. oleae
Experimental: (§2) Porphyrins: • a) meso[tri(N-methyl-pyridyl), mono(N-dodecyl-pyridyl)]porphine (abbr.: C12) • b) meso[tri(N-methyl-pyridyl), mono(N-tetradecyl-pyridyl)]porphine (abbr.: C14) • c) meso[tri(N-methyl-pyridyl), mono(N-octadecyl-pyridyl)]porphine (abbr.: C18) Bait: Aqueous solution containing 10% sucrose and 1% autolysed yeast Flies: • a) Ceratitis capitata (fruit fly) age: 1 week; weight: 5-6 mg • b) Bactrocera oleae (olive fly) age: 10 days; weight: 4-4.5 mg • c) Stomoxis calcitrans (stable fly) age: 10 days; weight: 12 mg Irradiation: • a) High pressure halogen lamp, equipped with infrared and UV filters, emission 360-850 nm, operated at intensities in the 760-2,000 μE s^−1m^−2 range • b) Sunlight, mid June at Padua latitude, average intensity of […] μE s^−1m^−2 with minimum and maximum values of 950 and, respectively, 1,380 μE s^−1m^−2
(§3) An appropriate number of flies (50 flies per each experiment) was caged in 115×55×70 mm Plexiglas cages with several holes (ø=0.5 mm) and starved for 36 h. Then, depending on the protocol to be adopted for each specific experiment, the flies were fed with the bait (10% sucrose and 1% autolysed yeast in neutral aqueous solution), which was either porphyrin-free or added with a predetermined concentration of the porphyrin. These flies were then used in the various experimental sessions.
(§4) At predetermined times, the flies were sacrificed by freezing; the dead flies were then homogenized with a Polytron in 10 ml of a 2% aqueous solution of sodium dodecylsulphate (SDS). The suspension was centrifuged for 10 min at 2,000 rpm, the pellet was discarded and known aliquots of the supernatant were diluted by means of a chloroform/methanol binary mixture (1/2, v/v). The porphyrin concentration was measured by reading the fluorescence emitted at wavelengths above 630 nm and interpolating the emission intensity with a calibration plot obtained with known amounts of the porphyrin. The results were expressed as nanomoles of porphyrin recovered per fly.

[4] = tested on: Ceratitis capitata (fruit fly); experiment: as above; details: C. capitata
Experimental: as §2, §3, §4

[5] = tested on: Stomoxis calcitrans (stable fly); experiment: as above; details: S. calcitrans
Experimental: as §2, §3, §4

[6] = tested on: Bactrocera oleae (olive fly); experiment: Release of alkylated porphyrin from flies after feeding with bait interrupted; details: B. oleae, 1.25 μM porphyrin in the bait
Experimental: as §3, §4

[7] = tested on: Ceratitis capitata (fruit fly); experiment: as above; details: C. capitata, 1.25 μM porphyrin in the bait
Experimental: as §3, §4

[8] = tested on: Stomoxis calcitrans (stable fly); experiment: as above; details: S. calcitrans, 1.25 μM porphyrin in the bait
Experimental: as §3, §4

Ceratitis capitata flies [9] = experiment: Photoinsecticidal action: fly survival after bait and sunlight irradiation; details: 3 μM in bait, 12 h after feeding, survival 1 h after irradiation
[10] = exposure time to bait 3 h, porphyrin in bait 1.24 μM
[11] = exposure time to bait 12 h, porphyrin in bait 1.24 μM
[12] = exposure time to bait 24 h, porphyrin in bait 1.24 μM
[13] = porphyrin concentration in bait 0.75 (μmoles), feeding 24 h
[14] = porphyrin concentration in bait 1.25 (μmoles), feeding 24 h
[15] = porphyrin concentration in bait 2.10 (μmoles), feeding 24 h
[16] = porphyrin concentration in bait 3.50 (μmoles), feeding 24 h
[17] = porphyrin concentration in bait 6.00 (μmoles), feeding 24 h

CCCCCCCCCCCC[n+]1ccc(-c2c3nc(c(-c4cc[n+](C)cc4)c4ccc([nH]4)c(-c4cc[n+](C)cc4)c4nc(c(-c5cc[n+](C)cc5)c5ccc2[nH]5)C=C4)C=C3)cc1 [C12, meso[tri(N-methyl-pyridyl), mono(N-dodecyl-pyridyl)]porphine]
Survival (% of control untreated flies) (Ceratitis capitata flies [1]; 3 μM in bait 24 h, time interval feeding-irradiation 0 h, irradiation 1 h at 1220 μE s^−1m^−2): 4 % of control untreated flies | Survival (% of control untreated flies) (Ceratitis capitata flies [1]; 3 μM in bait 24 h, time interval feeding-irradiation 12 h, irradiation 1 h at 1220 μE s^−1m^−2): 8 % of control untreated flies | Survival (% of control untreated flies) (Ceratitis capitata flies [1]; 3 μM in bait 24 h, time interval feeding-irradiation 24 h, irradiation 1 h at 1220 μE s^−1m^−2): 23 % of control untreated flies | Survival (% of control untreated flies) (Ceratitis capitata flies [1]; 3 μM in bait 24 h, time interval feeding-irradiation 48 h, irradiation 1 h at 1220 μE s^−1m^−2): 37 % of control untreated flies | Survival (% of control untreated flies) (Ceratitis capitata flies [1]; 3 μM in bait, fluence-rate 760 μE s^−1m^−2, irradiated 24 h after feeding (title)): 13 % of control untreated flies | Survival (% of control untreated flies) (Ceratitis capitata flies [1]; 3 μM in bait, fluence-rate 1220 μE s^−1m^−2, irradiated 24 h after feeding (title)): 4 % of control untreated flies | Survival (% of control untreated flies) (Ceratitis capitata flies [1]; 3 μM in bait, fluence-rate 1500 μE s^−1m^−2, irradiated 24 h after feeding (title)): 2 % of control untreated flies | Survival (% of control untreated flies) (Ceratitis capitata flies [1]; 3 μM in bait, fluence-rate 2000 μE s^−1m^−2, irradiated 24 h after feeding (title)): 0 % of control untreated flies | Survival (% of control untreated flies) ([2]; 0.75 μM in bait): 100 % of control untreated flies | Survival (% of control untreated flies) ([2]; 1.25 μM in bait): 82 % of control untreated flies | Survival (% of control untreated flies) ([2]; 2.10 μM in bait): 64 % of control untreated flies | Survival (% of control untreated flies) ([2]; 3.00 μM in bait): 47 % of control untreated flies | Survival (% of control untreated flies) ([2]; 5.00 μM in bait): 29 % of control untreated flies | Survival (% of control untreated flies) ([2]; 8.10 μM in bait): 16 % of control untreated flies | Survival (% of control untreated flies) (Bactrocera oleae flies; 0.75 μM in bait): 100 % of control untreated flies | Survival (% of control untreated flies) (Bactrocera oleae flies; 1.25 μM in bait): 100 % of control untreated flies | Survival (% of control untreated flies) (Bactrocera oleae flies; 2.10 μM in bait): 85 % of control untreated flies | Survival (% of control untreated flies) (Bactrocera oleae flies; 3.00 μM in bait): 72 % of control untreated flies | Survival (% of control untreated flies) (Bactrocera oleae flies; 5.00 μM in bait): 58 % of control untreated flies | Survival (% of control untreated flies) (Bactrocera oleae flies; 8.10 μM in bait): 51 % of control untreated flies | Recoveries (nmoles of porphyrin per fly) [3, 10]: 0.8 nmoles of porphyrin per fly | Recoveries (nmoles of porphyrin per fly) [3, 11]: 2.6 nmoles of porphyrin per fly | Recoveries (nmoles of porphyrin per fly) [3, 12]: 3.2 nmoles of porphyrin per fly | Recoveries (nmoles of porphyrin per fly) [3, 13]: 2.7 nmoles of porphyrin per fly | Recoveries (nmoles of porphyrin per fly) [3, 14]: 3.2 nmoles of porphyrin per fly | Recoveries (nmoles of porphyrin per fly) [3, 15]: 6.5 nmoles of porphyrin per fly | Recoveries (nmoles of porphyrin per fly) [3, 16]: 9.3 nmoles of porphyrin per fly | Recoveries (nmoles of porphyrin per fly) [3, 17]: 10.6 nmoles of porphyrin per fly | Recoveries (nmoles of porphyrin per fly) [4, 10]: 1.2 nmoles of porphyrin per fly | Recoveries (nmoles of porphyrin per fly) [4, 11]: 3.9 nmoles of porphyrin per fly | Recoveries (nmoles of porphyrin per fly) [4, 12]: 4.1 nmoles of porphyrin per fly | Recoveries (nmoles of porphyrin per fly) [4, 13]: 2.9 nmoles of porphyrin per fly | Recoveries (nmoles of porphyrin per fly) [4, 14]: 4.1 nmoles of porphyrin per fly | Recoveries (nmoles of porphyrin per fly) [4, 15]: 7.3 nmoles of porphyrin per fly | Recoveries (nmoles of porphyrin per fly) [4, 16]: 9.1 nmoles of porphyrin per fly | Recoveries (nmoles of porphyrin per fly) [4, 17]: 12.5 nmoles of porphyrin per fly | Recoveries (nmoles of porphyrin per fly) [5, 10]: 1.4 nmoles of porphyrin per fly | Recoveries (nmoles of porphyrin per fly) [5, 11]: 3.2 nmoles of porphyrin per fly | Recoveries (nmoles of porphyrin per fly) [5, 12]: 3.7 nmoles of porphyrin per fly | Recoveries (nmoles of porphyrin per fly) [5, 13]: 2.5 nmoles of porphyrin per fly | Recoveries (nmoles of porphyrin per fly) [5, 14]: 3.7 nmoles of porphyrin per fly | Recoveries (nmoles of porphyrin per fly) [5, 15]: 6.0 nmoles of porphyrin per fly | Recoveries (nmoles of porphyrin per fly) [5, 16]: 9.0 nmoles of porphyrin per fly | Recoveries (nmoles of porphyrin per fly) [5, 17]: 9.7 nmoles of porphyrin per fly | Recoveries (nmoles of porphyrin per fly), release ([6]; 12 h after feeding interrupted): 2.5 nmoles of porphyrin per fly | Recoveries (nmoles of porphyrin per fly), release ([6]; 24 h after feeding interrupted): 1.4 nmoles of porphyrin per fly | Recoveries (nmoles of porphyrin per fly), release ([6]; 48 h after feeding interrupted): 0.8 nmoles of porphyrin per fly | Recoveries (nmoles of porphyrin per fly), release ([7]; 12 h after feeding interrupted): 2.6 nmoles of porphyrin per fly | Recoveries (nmoles of porphyrin per fly), release ([7]; 24 h after feeding interrupted): 1.1 nmoles of porphyrin per fly | Recoveries (nmoles of porphyrin per fly), release ([7]; 48 h after feeding interrupted): 0.7 nmoles of porphyrin per fly | Recoveries (nmoles of porphyrin per fly), release ([8]; 12 h after feeding interrupted): 2.8 nmoles of porphyrin per fly | Recoveries (nmoles of porphyrin per fly), release ([8]; 24 h after feeding interrupted): 2.0 nmoles of porphyrin per fly | Recoveries (nmoles of porphyrin per fly), release ([8]; 48 h after feeding interrupted): 0.9 nmoles of porphyrin per fly | Survival (% of control untreated flies) (Ceratitis capitata flies [9]; sunlight (average 1150 μE s^−1m^−2) 15 min): 33 % of control untreated flies | Survival (% of control untreated flies) (Ceratitis capitata flies [9]; sunlight (average 1150 μE s^−1m^−2) 30 min): 17 % of control untreated flies | Survival (% of control untreated flies) (Ceratitis capitata flies [9]; sunlight (average 1150 μE s^−1m^−2) 45 min): 10 % of control untreated flies | Survival (% of control untreated flies) (Ceratitis capitata flies [9]; sunlight (average 1150 μE s^−1m^−2) 60 min): 2 % of control untreated flies
